Measurements reported in US20230310531A1, “TRIPTERYGIUM WILFORDII COMPOSITION FOR INHIBITING DRUG-RESISTANT CANCER, AND PREPARATION METHOD AND USE THEREOF” (HUAQIAO UNIVERSITY, priority 2022, published 2023).
Read-outs that look alike come from different tables or passages of the source.

Experiments:
Format in all cases: cell-based, human
H460/DDP cells = assay: MTT cell proliferation inhibition, H460/DDP cells; conditions: for IC50: H460/DDP cells; for Combination index (CI): H460/DDP
Description: (§1) The cisplatin-resistant cells of non-small cells, lung cancer cells A549 and H1299 and human large cells, lung cancer cells H460 (that is, A549/DDP, H1299/DDP, and H460/DDP), as well as normal human lung bronchial epithelial cells 16HBE were used as cultured cells. All the cells were cultured with a PRMI-1640 complete medium at 37° C. with a CO2 concentration of 5%. Three kinds of cell models were established by culturing the above cells to a certain amount.
(§2) The three kinds of cells in a logarithmic growth phase obtained in step 1 were separately inoculated in a 96-well plate at a density of 5×10^4 cells/mL. 90 μL of the cells were added to each well, and a complete medium as a blank control group, a DMSO negative control, a TP positive control, and experimental groups with different concentrations of compounds were set up. Three replicate wells were set up in each group, and the cells were cultured in a carbon dioxide incubator for 24 h. Drugs were added in a volume of 10 μl to each well, such that final concentrations were 10 μg/ml, 20 μg/ml, 30 μg/ml, 40 μg/ml, and 50 μg/ml. After culturing for 24 h, 48 h, and 72 h, 10 μl of an MTT solution was added to each well. After incubation for 4 h, the medium in each well was aspirated, and 100 μl of DMSO was added. The culture plate was placed in a microplate reader and shaken for 5 min to dissolve crystals. The cells were put into a microplate reader for detection, and a detection wavelength was set to OD=490 nm and a reference wavelength OD=630 nm to measure an absorbance of each well.
(§3) Relative cell viability (%)=((OD value of drug experimental group−OD value of blank control group)/(OD value of negative control group−OD value of blank control group))×100%.
(§4) Relative cell inhibition rate (%)=(1−relative cell viability)×100%.
(§5) The formula for calculating a combination index (CI) was as follows: […]
(§6) In the formula, (Dx)1, (Dx)2, and (Dx)3 represented the drug doses used alone, while (D)1, (D)2, and (D)3 represented the […] contributed by the respective drugs in the combination. […] When CI<1, there was a synergistic effect; when CI>1, there was an antagonistic effect; and when CI=1, there was […].
(§7) A calculation method of IC50 was as follows: SPSS software was used for calculation: after entering the SPSS data editor, the (Variable View) was activated to define variables, and under the variable name (Name), informations were input as follows: “dose/concentration”, “inhibition rate”, “total value”. A parameter Analysis Regression Probit was selected, the “Probit Analysis” dialog box was brought up, the “Dose/Concentration” was selected into the “Covariates” column, the “Inhibition Rate” was selected into the “Response Frequency” column, and the “Total Value” was selected into the “Total Observed” column. In the “Transform” column, “Log base 10” was selected; in the “Mode 1” column, the “Probit” probability unit model was selected; and in the “Options” column, “Calculate from Data” was selected.
The experimental design, the five compounds, and a method for determining the inhibitory effect on cisplatin-resistant cells H460/DDP were the same as those in Example 1.

H1299/DDP cells = assay: MTT cell proliferation inhibition, H1299/DDP cells; conditions: for Combination index (CI) / drug effect increased compared with TP alone: H1299/DDP; for drug effect increased compared with TP alone: used in combination with the TP
Description: as §1, §2, §3, §4, §5, §6, §7
The experimental design, the five compounds, and a method for determining the inhibitory effect on cisplatin-resistant cells H1229/DDP were the same as those in Example 1.

A549/DDP cells = assay: MTT cell proliferation inhibition, A549/DDP cells; conditions: for cell inhibition rate increased, two drugs combined compared with the single drug group: TP 4 μg/ml plus compound (E 1, H 11, I 0.9, J 2, P 20 μg/ml), equal volume ratio; for IC50: compound alone
Description: as §1, §2, §3, §4, §5, §6, §7
When drugs were used in combination, the TP was compatible with any one or any two of the compounds E, H, I, J, and P separately in an equal volume ratio.

[1] = 48 h, compound alone (FIGS. 1A-R)
[2] = 48 h, TP 2.5 μg/ml, compound at higher dose (E 2, H 22, I 1.8, J 4, P 40 μg/ml)
[3] = 48 h, TP 2.5 μg/ml, compound at lower dose (E 1, H 11, I 0.9, J 2, P 20 μg/ml)
[4] = 48 h, TP 5 μg/ml, compound at higher dose (E 2, H 22, I 1.8, J 4, P 40 μg/ml)
[5] = 48 h, TP 5 μg/ml, compound at lower dose (E 1, H 11, I 0.9, J 2, P 20 μg/ml)
[6] = A549/DDP, TP 2.5 μg/ml, compound at higher dose (E 2, H 22, I 1.8, J 4, P 40 μg/ml)
[7] = A549/DDP, TP 2.5 μg/ml, compound at lower dose (E 1, H 11, I 0.9, J 2, P 20 μg/ml)
[8] = A549/DDP, TP 5 μg/ml, compound at higher dose (E 2, H 22, I 1.8, J 4, P 40 μg/ml)
[9] = A549/DDP, TP 5 μg/ml, compound at lower dose (E 1, H 11, I 0.9, J 2, P 20 μg/ml)
[10] = Homo sapiens, NCI-H460, 48 h, compound alone (FIGS. 1A-R), read-out: IC50
[11] = Homo sapiens, NCI-H1299, H1299/DDP, in combination with TP 2.5 μg/ml, read-out: IC50 concentrations doses
[12] = Homo sapiens, NCI-H1299, H1299/DDP, in combination with TP 5 μg/ml, read-out: IC50 concentrations doses
[13] = Homo sapiens, A549 cells (A549/DDP per FIG. 2 legend), 48 h, read-out: IC50

| SMILES | IC50 (H460/DDP cells; [1]) [µg/mL] | Combination index (CI) (H460/DDP cells; [2]) | Combination index (CI) (H460/DDP cells; [3]) | Combination index (CI) (H460/DDP cells; [4]) | Combination index (CI) (H460/DDP cells; [5]) | Combination index (CI) (H1299/DDP cells; [2]) | Combination index (CI) (H1299/DDP cells; [3]) | Combination index (CI) (H1299/DDP cells; [4]) | drug effect increased compared with TP alone (H1299/DDP cells) [times] | cell inhibition rate increased, two drugs combined compared with the single drug group (A549/DDP cells; A549/DDP, 48 h) [times] | Combination index (CI) (A549/DDP cells; [6]) | Combination index (CI) (A549/DDP cells; [7]) | Combination index (CI) (A549/DDP cells; [8]) | Combination index (CI) (A549/DDP cells; [9]) | Combination index (CI) (H1299/DDP cells; [5]) | IC50 (H460/DDP cells; [10]) [µg/mL] | IC50 (H1299/DDP cells; [11]) [µg/mL] | IC50 (H1299/DDP cells; [12]) [µg/mL] | IC50 (A549/DDP cells; [13]) [µg/mL] | also measured |
| --- | --- | --- | --- | --- | --- | --- | --- | --- | --- | --- | --- | --- | --- | --- | --- | --- | --- | --- | --- | --- |
| CC(=O)OCC12C(OC(=O)C=Cc3ccccc3)CCC(C)(O)C13OC(C)(C)C(C(OC(C)=O)C2OC(=O)c1cccnc1)C3OC(C)=O (stereo not drawn) [Compound E, 1β-(E-cinnamoyloxy)-4a-hydroxy-5a,7β,11-triacetoxy-8β-nicotinoyloxy-dihydroagarofuran] | 1.98 | 0.6604 | 1.4669 | 0.5008 | 1.1134 | 1.1646 | 0.7473 | 0.8025 | 2.15 | 2.01 | 1.1269 | 0.8986 | 1.1213 | 0.8688 |  |  |  |  |  | IC50 (H460/DDP cells; 48 h, compound alone (FIGS. 7A-E)): 0.58 µg/mL; IC50 (A549/DDP cells; A549 cells (A549/DDP per FIG. 2 legend), 48 h): 5.03 µg/mL |
| C[C@@]1(C(=O)O)CC[C@]2(C)CC[C@]3(C)C4=CC(=O)c5c(cc(O)c(O)c5C=O)[C@]4(C)CC[C@@]3(C)[C@@H]2C1 [Compound H, Demethylzeylasteral] | 22.31 | 0.5569 | 0.7051 | 0.4270 | 0.6318 | 0.9651 | 0.8151 | 0.8689 | 2.12 | 1.54 | 0.7225 | 0.8749 | 0.7206 | 1.1462 |  |  |  |  |  |  |
| CC(C)c1ccc2c(c1)CCC1C(C)(CO)C(=O)CCC21C (stereo not shown) [Compound I, Triptobenzene R] | 1.893 | 1.2499 | 1.1241 | 0.7619 | 0.9327 | 1.1259 | 0.7373 | 1.1503 |  | 1.81 | 0.8583 | 1.3864 | 0.8288 | 0.8316 | 0.8353 |  |  |  |  | IC50 (H1299/DDP cells; H1299 cells (H1299/DDP per FIG. 2 legend), 48 h, compound alone): 8.61 µg/mL; inhibitory effect compared with TP (A549/DDP cells; A549/DDP, 48 h, compound alone (FIGS. 3A-E)): better inhibitory effect on cells than that of the TP |
| CC(C)c1ccc2c(c1)C(=O)C[C@H]1[C@@](C)(CO)[C@@H](O)CC[C@]21C [Compound J, (3S,4S,5R,10S)-3,19-dihydroxy-7-ox-oabieta-8,11,13-triene] |  | 0.3260 | 0.5384 | 0.3064 | 0.6519 | 0.9855 | 0.6741 | 0.5884 |  | 1.58 | 0.9025 | 0.9333 | 0.9982 | 0.6952 | 0.6735 | 4.32 | 1.84 | 0.9 | 6.92 | IC50 (H460/DDP cells; Homo sapiens, NCI-H460, 48 h, compound alone (FIGS. 7A-E), read-out: IC50): 0.61 µg/mL; inhibition rate of combination with TP, times higher than TP alone (A549/DDP cells; A549/DDP, combination with TP): 1.32 times |
| CC(C)c1ccc2c(c1O)CC[C@H]1C(C)(C)[C@@H](O)CC[C@]21C [Compound P, Triptobenzene B] |  | 0.1961 | 0.2435 | 0.2976 | 0.3777 | 1.1079 | 1.7041 | 0.9326 |  | 1.34 | 1.2660 | 1.0764 | 1.4985 | 1.1918 | 0.6521 | 39.2 | 12 | 11 | 6.72 | IC50 (H1299/DDP cells; Homo sapiens, NCI-H1299, 48 h, H1299/DDP cells, 48 h, compound alone (FIGS. 5A-E), read-out: IC50): 12.8 µg/mL |
| CC(C)[C@]12O[C@H]1[C@@H]1O[C@]13[C@]1(O[C@H]1C[C@H]1C4=C(CC[C@@]13C)C(=O)OC4)[C@@H]2O [TP, triptolide, reference compound] |  |  |  |  |  |  |  |  |  |  |  |  |  |  |  | 1.97 |  |  |  | IC50 (A549/DDP cells; Homo sapiens, A549/DDP, A549DDP cells, read-out: IC50 value of A549DDP cells used as a synergistic dose): 7.83 µg/mL |
